Results reported in US11474106B2, “Methods for cytotoxic chemotherapy-based predictive assays” (ACCELERATED MEDICAL DIAGNOSTICS, INC., priority 2015, dated 2022).

Tests used:
PDX Model BL0440 = assay: Drug-DNA adduct frequency in PDX tumor tissue by AMS; format: in vivo, NSG mice; settings: microdose 0.092 mg/kg gemcitabine, 24 h
Text: (§1) Female NSG mice (5-8 weeks of age, body weight: 20 to 25 g) were obtained from Jackson Laboratories (CA, USA). All animals were kept under pathogen-free conditions and were allowed to acclimatize for at least 4 days prior to any experiments. PDX models bearing the indicated patient derived xenografts were created by subcutaneous injection at the flank of 1 mm^3 tumor tissue. To establish multiple PDXs to allow efficacy studies with multiple drugs, PDXs from passage 2-4 were minced into 1 mm^3 sections and injected subcutaneously into multiple mice. At least 3 mice were used for each treatment group. Tumors were allowed to grow to at about 100 mm^3 before being assessed for drug sensitivity or the induction of DNA adducts by the administration of a microdose or a therapeutic dose of labeled drug. […] Tumor growth was assessed by measuring palpable tumors with a caliper and calculating tumor volume. Drug-DNA adduct frequencies were measured in tumor tissue collected 24 hours after intravenous injection of labeled drug and stored at −80° C. until DNA isolation. DNA was isolated using a modified Wizard procedure (Promega), quantitated by spectrophotometry, and then stored frozen at −20° C. until AMS analysis. Ten micrograms of DNA per sample was converted to graphite and measured by AMS for 14C quantification as previously described. […]

PDX Model BL0293 = assay: as above; format: in vivo, NSG mice; settings: microdose 0.092 mg/kg gemcitabine, 24 h
Text: as §1

PDX Model BL0645 = assay: as above; format: in vivo, NSG mice; settings: 24 h
Text: (§2) Female NSG mice (5-8 weeks of age, body weight: 20 to 25 g) were obtained from Jackson Laboratories (CA, USA). All animals were kept under pathogen-free conditions and were allowed to acclimatize for at least 4 days prior to any experiments. PDX models bearing the indicated patient derived xenografts were created by subcutaneous injection at the flank of 1 mm^3 tumor tissue. To establish multiple PDXs to allow efficacy studies with multiple drugs, PDXs from passage 2-4 were minced into 1 mm^3 sections and injected subcutaneously into multiple mice. At least 3 mice were used for each treatment group. Tumors were allowed to grow to at about 100 mm^3 before being assessed for drug sensitivity or the induction of DNA adducts by the administration of a microdose or a therapeutic dose of labeled drug. To assess tumor response to chemotherapy, cisplatin was administered at 2 mg/kg IV every 7 days for a total of 3 cycles, or gemcitabine was administered at 150 mg/kg IP every 7 days for a total of 4 cycles. G/C combination chemotherapy consisted of the simultaneous administration of both drugs using the schema described above. Tumor growth was assessed by measuring palpable tumors with a caliper and calculating tumor volume. Drug-DNA adduct frequencies were measured in tumor tissue collected 24 hours after intravenous injection of labeled drug and stored at −80° C. until DNA isolation. DNA was isolated using a modified Wizard procedure (Promega), quantitated by spectrophotometry, and then stored frozen at −20° C. until AMS analysis. Ten micrograms of DNA per sample was converted to graphite and measured by AMS for 14C quantification as previously described.
(§3) NSG mice bearing the indicated PDX tumors were injected with a microdose of ^14C-labeled carboplatin (FIG. 22A) or ^14C-labeled gemcitabine (FIG. 22B). The microdose of ^14C-labeled carboplatin was 0.375 mg/kg carboplatin, 50,000 dpm/g. The microdose of ^14C-labeled gemcitabine was 0.092 mg/kg gemcitabine, 1000 dpm/g. The doses of each drug administered to the mice were chosen to target 1 μM in plasma concentration of carboplatin and 0.3 μM in plasma concentration of gemcitabine. These plasma concentrations represent 1% of the approximate peak plasma concentration during human chemotherapy. Animals were sacrificed after 24 h and drug-DNA adduct frequency was determined from collected tumor tissue by AMS measurements of ^14C in tumor DNA. Carboplatin DNA-adduct levels correlate with PDX model sensitivity to cisplatin at 24h after microdosing (FIG. 22A). […]
(§4) In this example we test whether gemcitabine/carboplatin (G/Carbo) combination therapy has an effect on the formation of drug-DNA adducts in this synergistic tumor model. […] Carboplatin-DNA monoadducts were measured in tumor tissue 24 h after dosing. […]

PDX Model BL0269 = assay: as above; format: in vivo, NSG mice
Text: as §2, §3, §4

A549 = assay: MTT assay (IC50); format: cell-based, human
Procedure: Six non-small cell lung cancer (NSCLC) cell lines were treated in culture with [^14C]carboplatin. Carboplatin-DNA monoadduct levels over time were determined by measuring ^14C content in genomic DNA with accelerator mass spectrometry (AMS). Cellular sensitivity to carboplatin and cisplatin was analyzed by the MTT assay (Henderson et al., International Journal of Cancer 2011).
Human NSCLC cell lines H23, H460, H727, HCC827, H1975, and A549 were purchased from ATCC and were cultured with the recommended medium. The MTT assay was performed as previously reported to determine the drug concentration required to inhibit cell growth by 50% (IC50) of cisplatin and carboplatin. [^14C]Carboplatin (at 53 mCi/mmol) was mixed with unlabeled carboplatin to achieve the specific activities required for microdoses and therapeutic doses. Table 1 lists the six NSCLC cell lines and summarizes their IC50 characteristics, induced carboplatin-DNA monoadducts when treated with [^14C]carboplatin, and p and r^2 values for correlation analysis to the IC50 concentrations.

5637 = assay: MTT assay (IC50); format: cell-based, human
Procedure: Thus, we measured the IC50 of the six NSCLC cell lines from Example 2 to both cisplatin and carboplatin to determine if the sensitivity of these six NSCLC cell lines to the two drugs are correlated.
The cell lines were purchased from the American Type Culture Collection (ATCC, Manassas, Va.) and cultured in the recommended media.
Drug-DNA adduct formation and repair was measured by accelerator mass spectrometry.
These two cell lines were also cultured with a range of concentrations of cisplatin, carboplatin, gemcitabine, doxorubicin, methotrexate and vinblastine for 72 hours to determine IC50 for these other drugs (FIG. 16C). These drugs were chosen because of their frequent use in the treatment of bladder cancer.

Row | SMILES | gemcitabine adduct levels (PDX Model BL0440) | gemcitabine adduct levels (PDX Model BL0293) | gemcitabine adduct level (PDX Model BL0645; BL0645, therapeutic dose gemcitabine 9.2 mg/kg, alone or with carboplatin 37.5 mg/kg) | gemcitabine adduct levels (PDX Model BL0645; BL0645 tumor DNA, microdose 0.092 mg/kg gemcitabine, alone or with carboplatin 0.375 mg/kg) | gemcitabine-DNA adduct levels (PDX Model BL0269; BL0269 control experiment (FIG. 23F), microdose gemcitabine 0.092 mg/kg, alone or with carboplatin 0.375 mg/kg) | gemcitabine adduct levels (PDX Model BL0269; BL0269 tumor DNA, microdose 0.092 mg/kg gemcitabine, 24 h (FIG. 22B)) | IC50 (A549) | IC50 (5637; 5637 (Table 2)) | IC50 (5637; 5637 (parental, Example 11), MTT, 72 hours)
1 | Nc1ccn([C@@H]2O[C@H](CO)[C@@H](O)C2(F)F)[14c](=O)n1 [[^14C]gemcitabine, 2′-Deoxy-2′,2′-difluorocytidine, [cytosine-2-^14C]-] | 13.1±10.2 | 10.0±5.92 | 169.2±9.129 adducts per 10^8 nucleotides | 2.44±0.880 adducts per 10^8 nucleotides | 2.44±0.492 adducts per 10^8 nucleotides | 3.17±0.278 |  |  | 
2 | N.N.[Cl][Pt][Cl] [cisplatin] |  |  |  |  |  |  | 26.3 ± 9.26 µM | 2.43 ± 0.45 µM | 0.59 µM
